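A five-concentration, 48-hour dose response in 96-well plates underlies each endpoint, interpolated linearly between surrounding concentrations. GI50 = concentration required for 50% inhibition of growth. TGI: concentration producing complete growth inhibition.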
What was measured:
Assay in all cases: growth of human tumour cells (NCI), 48 h
UO-31 renal = system: UO-31 renal
SNB-19 CNS = system: SNB-19 CNS
HT29 colon = system: HT29 colon
NCI-H226 lung = system: NCI-H226 lung
CAKI-1 renal = system: CAKI-1 renal
U251 CNS = system: U251 CNS
ACHN renal = system: ACHN renal
RXF 393 renal = system: RXF 393 renal
HOP-62 NSCLC = system: HOP-62 NSCLC
LOX IMVI melanoma = system: LOX IMVI melanoma
SF-268 CNS = system: SF-268 CNS
SF-295 CNS = system: SF-295 CNS
NCI-H522 lung = system: NCI-H522 lung
SK-MEL-28 melanoma = system: SK-MEL-28 melanoma
MDA-MB-435 = system: MDA-MB-435
PC-3 prostate = system: PC-3 prostate
SF-539 CNS = system: SF-539 CNS
M14 melanoma = system: M14 melanoma
HS 578T breast = system: HS 578T breast
SN12C renal = system: SN12C renal
HCC-2998 colon = system: HCC-2998 colon
HCT-15 colon = system: HCT-15 colon
MCF7 breast = system: MCF7 breast
IGROV1 ovarian = system: IGROV1 ovarian
SR leukemia = system: SR leukemia
SK-MEL-5 melanoma = system: SK-MEL-5 melanoma
MDA-MB-231 breast = system: MDA-MB-231 breast
NCI/ADR-RES ovarian = system: NCI/ADR-RES ovarian
SW-620 colon = system: SW-620 colon
OVCAR-3 ovarian = system: OVCAR-3 ovarian
A498 renal = system: A498 renal
HL-60(TB) leukemia = system: HL-60(TB) leukemia
NCI-H23 lung = system: NCI-H23 lung
DU-145 prostate = system: DU-145 prostate
UACC-257 melanoma = system: UACC-257 melanoma
RPMI-8226 leukemia = system: RPMI-8226 leukemia
OVCAR-5 ovarian = system: OVCAR-5 ovarian
OVCAR-8 ovarian = system: OVCAR-8 ovarian
MOLT-4 leukemia = system: MOLT-4 leukemia
KM12 colon = system: KM12 colon
CCRF-CEM leukemia = system: CCRF-CEM leukemia
UACC-62 melanoma = system: UACC-62 melanoma
A549 NSCLC = system: A549 NSCLC
786-0 renal = system: 786-0 renal
HOP-92 NSCLC = system: HOP-92 NSCLC
NCI-H460 lung = system: NCI-H460 lung
OVCAR-4 ovarian = system: OVCAR-4 ovarian
SK-OV-3 ovarian = system: SK-OV-3 ovarian
K-562 leukemia = system: K-562 leukemia
COLO 205 colon = system: COLO 205 colon
T-47D breast = system: T-47D breast
TK-10 renal = system: TK-10 renal
SNB-75 CNS = system: SNB-75 CNS
SK-MEL-2 melanoma = system: SK-MEL-2 melanoma
HCT-116 colon = system: HCT-116 colon

NC(=O)c1cc(Cl)ccc1NC(=O)COc1ccccc1
GI50 (UO-31 renal): 17.9 µM
TGI (UO-31 renal): > 100 µM
GI50 (SNB-19 CNS): 11.7 µM
TGI (SNB-19 CNS): > 100 µM
GI50 (HT29 colon): 1.74 µM
TGI (HT29 colon): > 100 µM
GI50 (NCI-H226 lung): > 100 µM
TGI (NCI-H226 lung): > 100 µM
GI50 (CAKI-1 renal): 4.18 µM
TGI (CAKI-1 renal): > 100 µM
GI50 (U251 CNS): 2.34 µM
TGI (U251 CNS): > 100 µM
GI50 (ACHN renal): 10.7 µM
TGI (ACHN renal): > 100 µM
GI50 (RXF 393 renal): 3.93 µM
TGI (RXF 393 renal): 39.4 µM
GI50 (HOP-62 NSCLC): 5.88 µM
TGI (HOP-62 NSCLC): > 100 µM
GI50 (LOX IMVI melanoma): 8.33 µM
TGI (LOX IMVI melanoma): > 100 µM
GI50 (SF-268 CNS): 9.89 µM
TGI (SF-268 CNS): > 100 µM
GI50 (SF-295 CNS): 1.96 µM
TGI (SF-295 CNS): 41.6 µM
GI50 (NCI-H522 lung): 3.78 µM
TGI (NCI-H522 lung): > 100 µM
GI50 (SK-MEL-28 melanoma): 6.25 µM
TGI (SK-MEL-28 melanoma): > 100 µM
GI50 (MDA-MB-435): 0.356 µM
TGI (MDA-MB-435): 2.22 µM
GI50 (PC-3 prostate): 3.22 µM
TGI (PC-3 prostate): > 100 µM
GI50 (SF-539 CNS): 1.8 µM
TGI (SF-539 CNS): 5.2 µM
GI50 (M14 melanoma): 2.21 µM
TGI (M14 melanoma): > 100 µM
GI50 (HS 578T breast): 4.65 µM
TGI (HS 578T breast): > 100 µM
GI50 (SN12C renal): 17 µM
TGI (SN12C renal): > 100 µM
GI50 (HCC-2998 colon): 12.1 µM
TGI (HCC-2998 colon): > 100 µM
GI50 (HCT-15 colon): 1.57 µM
TGI (HCT-15 colon): > 100 µM
GI50 (MCF7 breast): 1.81 µM
TGI (MCF7 breast): > 100 µM
GI50 (IGROV1 ovarian): 5.6 µM
TGI (IGROV1 ovarian): > 100 µM
GI50 (SR leukemia): 0.777 µM
TGI (SR leukemia): > 100 µM
GI50 (SK-MEL-5 melanoma): 7.45 µM
TGI (SK-MEL-5 melanoma): > 100 µM
GI50 (MDA-MB-231 breast): 9.02 µM
TGI (MDA-MB-231 breast): > 100 µM
GI50 (NCI/ADR-RES ovarian): 1.43 µM
TGI (NCI/ADR-RES ovarian): 20.9 µM
GI50 (SW-620 colon): 2.58 µM
TGI (SW-620 colon): > 100 µM
GI50 (OVCAR-3 ovarian): 2.3 µM
TGI (OVCAR-3 ovarian): 10 µM
GI50 (A498 renal): 1.41 µM
TGI (A498 renal): 9.27 µM
GI50 (HL-60(TB) leukemia): 3.29 µM
TGI (HL-60(TB) leukemia): 70.7 µM
GI50 (NCI-H23 lung): 5.9 µM
TGI (NCI-H23 lung): > 100 µM
GI50 (DU-145 prostate): 6.01 µM
TGI (DU-145 prostate): > 100 µM
GI50 (UACC-257 melanoma): > 100 µM
TGI (UACC-257 melanoma): > 100 µM
GI50 (RPMI-8226 leukemia): 4.33 µM
TGI (RPMI-8226 leukemia): > 100 µM
GI50 (OVCAR-5 ovarian): 3.86 µM
TGI (OVCAR-5 ovarian): > 100 µM
GI50 (OVCAR-8 ovarian): 7.06 µM
TGI (OVCAR-8 ovarian): > 100 µM
GI50 (MOLT-4 leukemia): 8.14 µM
TGI (MOLT-4 leukemia): > 100 µM
GI50 (KM12 colon): 2.13 µM
TGI (KM12 colon): > 100 µM
GI50 (CCRF-CEM leukemia): 3.07 µM
TGI (CCRF-CEM leukemia): > 100 µM
GI50 (UACC-62 melanoma): 5.42 µM
TGI (UACC-62 melanoma): > 100 µM
GI50 (A549 NSCLC): 7.06 µM
TGI (A549 NSCLC): > 100 µM
GI50 (786-0 renal): 9.54 µM
TGI (786-0 renal): > 100 µM
GI50 (HOP-92 NSCLC): 5.7 µM
TGI (HOP-92 NSCLC): > 100 µM
GI50 (NCI-H460 lung): 3 µM
TGI (NCI-H460 lung): > 100 µM
GI50 (OVCAR-4 ovarian): > 100 µM
TGI (OVCAR-4 ovarian): > 100 µM
GI50 (SK-OV-3 ovarian): 8.15 µM
TGI (SK-OV-3 ovarian): > 100 µM
GI50 (K-562 leukemia): 0.854 µM
TGI (K-562 leukemia): > 100 µM
GI50 (COLO 205 colon): 2.51 µM
TGI (COLO 205 colon): 14.4 µM
GI50 (T-47D breast): 6.88 µM
TGI (T-47D breast): > 100 µM
GI50 (TK-10 renal): 63.8 µM
TGI (TK-10 renal): > 100 µM
GI50 (SNB-75 CNS): 1.81 µM
TGI (SNB-75 CNS): 23 µM
GI50 (SK-MEL-2 melanoma): 5.08 µM
TGI (SK-MEL-2 melanoma): > 100 µM
GI50 (HCT-116 colon): 2.72 µM
TGI (HCT-116 colon): > 100 µM

From PubChem BioAssay (NCI)
